Like-named read-outs stand apart in the source and are kept apart here.
Experiments:
[1] = test system: Rabbit Skeletal myofibrils (rabbit psoas muscle); test: Myofibril ATPase assay (PK/LDH NADH-coupled), skeletal myofibrils; format: biochemical
Summary of the method: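 Rabbit psoas myofibrils in pCa (PIPES/CaCl2/EGTA, pH 7.0) buffer; ADP coupled via PK/LDH to NADH loss, read at 340 nm every 1.5–2 min for 75 min. Slopes normalized to vehicle (100%) and fit to 4-parameter logistic for EC25, plus EC50 for inhibitors.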

[2] = test system: isoflurane-anesthetized SD rats; test: In vivo echocardiography of systolic cardiac performance (FS, SWT, HR, LV volumes) after a single oral dose; conditions: Rattus norvegicus, single dose 10 mg/kg PO, ~2 hrs post-dosing, vs. vehicle
Procedure: Experiments were performed to evaluate the in vivo ability of the compounds of the disclosure to modulate systolic cardiac performance. Non-invasively echocardiography was used to assess cardiac indicators in isoflurane-anesthetized SD rats. A set of conscious rats were treated with either vehicle control (0 mg/kg PO; n=78) or a single dose of an test compound (10 mg/kg PO, n=2 to 6/compound) via oral gavage. Cardiac function/geometry were recorded at two separate time-points/days: once prior to dosing (i.e., at baseline, day −2) and at ˜2 hrs post-dosing (day 0).
In these experiments, heart rate (HR), echocardiography-derived indices of left-ventricular systolic performance, as well as dimensions/volumes were measured using a high-frequency transducer and parastemnal long-axis transthoracic views (Vevo3100, VisualSonic). LV fractional shortening (FS), an index of systolic function, was defined as the end-diastole normalized change in internal dimensions divided by the […] (LVid) of the left ventricle between end-systole (LVids) and end-diastole (LVidd) (i.e., FS=100·[LVidd−LVids]/LVidd). LV volumes were derived using the Teichholz formula (LVV=7·LVid^3/[2.4+LVid]). In addition, a systolic wall-thickening index (SWT) was also evaluated. SWT is defined as the relative ratio (end-diastole normalized) of left-ventricular (anterior and posterior) wall-thickness change during systole; i.e., SWT=I{[(anterior LV wall thickness in systole−anterior LV wall thickness in diastole)][…][(posterior LV wall thickness in systole−posterior LV wall thickness in diastole)]}/{2*diastolic thickness}. In all cases, blood samples were taken (via either tail-vein micro-sampling or cardiac-puncture) at the time of each echocardiographic examination in order to establish pharmacokinetic (PK)/pharmacodynamics (PD) relationships.

Porcine Atria myofibrils = test: Myofibril ATPase assay (PK/LDH NADH-coupled), atria myofibrils; format: biochemical
Summary of the method: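 Porcine atrial myofibril ATPase followed via PK/LDH-coupled NADH depletion, absorbance at 340 nm read every 1.5-2 min over 75 min. Slopes (mAU/min) normalized to vehicle as 100% and fit to a 4-parameter logistic; EC25% derived, plus EC50% for inhibitors.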

[3] = EDV (LV volume, Teichholz formula), read-out: EDV % vs. VEH
[4] = LV fractional shortening, read-out: FS % vs. VEH
[5] = heart rate, read-out: HR % vs. VEH
[6] = systolic wall-thickening index, read-out: SWT % vs. VEH

Rabbit Psoas IC25 ([1]; Table 8) | Porcine Atria IC25 (Porcine Atria myofibrils; Table 8) | Rabbit Psoas IC25 ([1]; Table 7) | Porcine Atria IC25 (Porcine Atria myofibrils; Table 7) | SMILES | change in vivo at 10 mg/kg [2, 3] | change in vivo at 10 mg/kg [2, 4] | change in vivo at 10 mg/kg [2, 5] | change in vivo at 10 mg/kg [2, 6]
11.29 nM | 30 nM |  |  | CC(NC(=O)CN1Cc2cc(F)ccc2NC1=O)c1ccc(C#N)cc1F (single isomer, unassigned) [Compound B206] | 29% | -67% | 7% | -57%
11.6 nM | 20 nM |  |  | O=C(CN1Cc2cc(F)ccc2NC1=O)N[C@@H]1COc2cc(F)cc(F)c21 [Compound B145] | 11% | -42% | 7% | -39%
18.79 nM | 30 nM |  |  | C[C@H](NC(=O)CN1Cc2c(ccc(F)c2F)NC1=O)c1ccc(C#N)cc1F [Compound B189] | 19% | -13% | -5% | -29%
39.4 nM | 90 nM |  |  | C[C@H](NC(=O)CN1Cc2cc(F)ccc2NC1=O)c1ncc(C#N)cc1F [Compound B199] | 11% | -54% | 22% | -55%
32.05 nM | 60 nM |  |  | C[C@H](NC(=O)CN1Cc2cc(F)ccc2NC1=O)c1ccc(F)cc1F [Compound B247, N-[(1S)-1-(2,4-Difluorophenyl)ethyl]-2-(6-fluoro-2-oxo-1,4-dihydroquinazolin-3-yl)acetamide] | 7% | -31% | 7% | -35%

Continued, compound first:

SMILES | Rabbit Psoas IC25 ([1]; Table 8) | Porcine Atria IC25 (Porcine Atria myofibrils; Table 8) | Rabbit Psoas IC25 ([1]; Table 7) | Porcine Atria IC25 (Porcine Atria myofibrils; Table 7) | change in vivo at 10 mg/kg [2, 3] | change in vivo at 10 mg/kg [2, 4] | change in vivo at 10 mg/kg [2, 5] | change in vivo at 10 mg/kg [2, 6]
N#Cc1cnc2c(c1)OCC2NC(=O)CN1Cc2c(ccc(F)c2F)NC1=O (single isomer, unassigned) [Compound B65] | 19.1 nM | 60 nM |  |  | 22% | -61% | 22% | -53%
C[C@@H](NC(=O)CN1Cc2c(ccc(F)c2F)NC1=O)c1ncc(C#N)cc1F [Compound B141, (R)—N-(1-(5-cyano-3-fluoropyridin-2-yl)ethyl)-2-(5,6-difluoro-2-oxo-1,4-dihydroquinazolin-3(2H)-yl)acetamide] | 422.8 nM | 130 nM |  |  | -3% | -15% | 13% | -19%
O=C(CN1Cc2c(ccc(F)c2F)NC1=O)N[C@@H]1COc2cc(F)cc(F)c21 [Compound B147] | 16.23 nM | 50 nM |  |  | 10% | -35% | 10% | -37%
C[C@H](NC(=O)CN1Cc2c(ccc(F)c2F)NC1=O)c1ncc(F)cc1F [Compound B191] | 20.19 nM | 40 nM |  |  | 9% | -59% | 17% | -59%
O=C(CN1C(=O)Nc2cccnc2C12CC2)N[C@@H]1COc2cc(F)cc(F)c21 [Compound N33] |  |  | 19.37 nM | 80 nM | 2% | -10% | 6% | -5%

— patent publication US12509431B2, “1,4-dihydroquinazolinone compounds and uses thereof” (Edgewise Therapeutics, Inc., priority 2022, dated 2025)
